One assay concerns the target T1, TbINO1 (Trypanosoma brucei brucei, UniProt Q5QQ46).
T1 sequence (Q5QQ46 1-528): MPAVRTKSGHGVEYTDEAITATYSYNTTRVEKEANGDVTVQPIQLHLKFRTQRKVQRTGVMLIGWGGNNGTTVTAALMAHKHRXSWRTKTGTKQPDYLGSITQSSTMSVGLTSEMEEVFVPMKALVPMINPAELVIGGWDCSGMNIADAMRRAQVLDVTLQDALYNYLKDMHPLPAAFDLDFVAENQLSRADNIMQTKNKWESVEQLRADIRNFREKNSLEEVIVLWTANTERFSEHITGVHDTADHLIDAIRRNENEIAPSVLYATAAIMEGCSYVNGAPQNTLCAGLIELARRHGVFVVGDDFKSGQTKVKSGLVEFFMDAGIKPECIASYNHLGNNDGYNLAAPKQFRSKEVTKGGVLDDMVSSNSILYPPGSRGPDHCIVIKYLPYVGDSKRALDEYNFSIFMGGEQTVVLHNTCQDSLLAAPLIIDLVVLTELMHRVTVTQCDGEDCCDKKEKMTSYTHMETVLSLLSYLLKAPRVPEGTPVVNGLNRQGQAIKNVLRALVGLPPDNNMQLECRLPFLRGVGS
Description: biochemical. Format: binding.

The next assay deals with HeLa cells. Description: cells. The conditions noted are these: for viability at 500 µM: 65 h; for HeLa Cells Alamar Blue: Supplementary Table 1. In outline:
(§1)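 Alamar Blue read-out after a 5 h dye incubation that followed ~65 h compound exposure. Cells: HeLa or A549, 2 × 10^4/well, DMEM + 10% FCS + 2 mM L-Glutamine.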

Another assay relates to A549 cells. Briefly: Cytotoxicity against A549 cells, Alamar Blue. The assay is classed as cell-based. The conditions noted are these: Supplementary Table 1, compound 0.5 mM, percentage of controls (n=1); for viability at 500 µM: Homo sapiens, A549, 65 h. In outline: as §1
In general terms: The colour change of resazurin is a common sign of viable cells or microbes.

The mark [1] stands for this setting: read-out: Tb Ino1 Tm Shift [˚C].
[2] abbreviates: Homo sapiens, HeLa, read-out: HeLa Cells Alamar Blue.
[3] abbreviates: Supplementary Table 1, compound 1mM, mean ± SD from Boltzman curve fitting.
Setting [4] is: compound 0.5 mM, percentage of controls, mean ± SD (n=3) or SE (n=2).
Setting [5] is: Homo sapiens, HeLa, read-out: HeLa Cells Alamar Blue (% survival).

Where two headings read alike, the source gives them in different places.

Turning to `Nc1ccccc1-n1ccnc1` [compound 262, 2‐(1H‐imidazol‐1‐yl)aniline], the ΔTm at 1000 µM at TbINO1 (setting [1]) turned out to be 0.62 ± 0.08 °C. Moreover, the viability at 500 µM with HeLa cells (setting [2]) worked out at 66.5 ± 16.1%; in the assay on A549 cells it was 76%.

In the case of `Nc1cccc(-c2cnco2)c1` [compound 267, 3‐(1,3‐oxazol‐5‐yl)aniline], the ΔTm at 1000 µM on TbINO1 (setting [1]) was found to be 0.13 ± 0.09 °C. In addition, the viability at 500 µM in the assay on HeLa cells (setting [2]) is 75 ± 15.2%; in the assay on A549 cells, 79.8%.

Take `CN(C)C1(CN)CCSC1` (stereo not drawn) [compound 268, 3‐(aminomethyl)‐N,N‐dimethyltetrahydro‐3‐thiophenamine]: on TbINO1 (setting [3]), the “Tb Ino1 Tm Shift [˚C]” value came to 0.32 ± 0.07 °C. The “HeLa Cells Alamar Blue” value in the assay on HeLa cells (setting [4]) is 88.4 ± 17.9 percentage of controls. In the assay with A549 cells, the “A549 Cells Alamar Blue” value is listed as 87.3 percentage of controls.

As for `O=C(O)c1ccc2cc[nH]c2c1` [compound 271, 1H‐indole‐6‐carboxylic acid], the ΔTm at 1000 µM at TbINO1 (Supplementary Table 1, compound 1mM, mean ± SD from Boltzman curve fitting, read-out: Tb Ino1 Tm Shift [˚C]) turned out to be 0.06 ± 0.08 °C. The viability at 500 µM with HeLa cells (Homo sapiens, HeLa, read-out: HeLa Cells Alamar Blue, Supplementary Table 1, compound 0.5 mM, percentage of controls, mean ± SD (n=3) or SE (n=2)) came out at 111 ± 16.2%; with A549 cells, 75.6%.

Consider `O=C1CC(c2ccccc2)=NO1` [compound 272, 3-phenyl-4,5-dihydroisoxazol-5-one], for which, on TbINO1 (read-out: TbIno1 Tm shift [°C]), the ΔTm at 1000 µM was 3.56 ± 0.06 °C. In addition, the results for the viability at 500 µM with HeLa cells (setting [2]), in the assay with HeLa cells (setting [5]) and in the assay with A549 cells were 89.4 ± 3.9%, 89.4 ± 3.9% and 61.5%, respectively.

On to `O=C(O)c1c[nH]c2ccccc12` [compound 273, 1H‐indole‐3‐carboxylic acid], for which, at TbINO1 (setting [1]), the ΔTm at 1000 µM was 0.01 ± 0.05 °C. Also, the figures for the viability at 500 µM with HeLa cells (setting [2]) and with A549 cells were 85.4 ± 12.2% and 61.8%, respectively.

With `Fc1ccc(-n2cccc2)cc1` [compound 276, 1‐(4‐fluorophenyl)‐1H‐pyrrole], on TbINO1 (setting [1]), the ΔTm at 1000 µM amounted to 0.75 ± 0.08 °C. The figures for the viability at 500 µM with HeLa cells (setting [2]) and with A549 cells were 104 ± 16.6% and 70.2%, respectively.

As to `OCCc1c[nH]c2ccccc12` [compound 277, 2‐(1H‐indol‐3‐yl)ethan‐1‐ol], the ΔTm at 1000 µM on TbINO1 (setting [1]) came out at 1.12 ± 0.06 °C. For the same compound, the viability at 500 µM was found to be 66.3 ± 1.7% in the assay with HeLa cells (setting [2]) and 59.9% in the assay on A549 cells.

With `ON=C1CCCc2ccccc21` [compound 279, 1,2,3,4‐tetrahydronaphthalen‐1‐one oxime], the “Tb Ino1 Tm Shift [˚C]” value on TbINO1 (setting [3]) is 0.76 ± 0.08 °C. Moreover, the “HeLa Cells Alamar Blue” value in the assay with HeLa cells (setting [4]) was 19.9 ± 19.7 percentage of controls. Besides, in the assay on A549 cells, the “A549 Cells Alamar Blue” value is listed as 16.9 percentage of controls.

Consider `Nc1ccc2c(c1)CCCC2=O` [compound 280, 6‐amino‐1,2,3,4‐tetrahydronaphthalen‐1‐one], for which the “Tb Ino1 Tm Shift [˚C]” value at TbINO1 (setting [3]) worked out at 0.82 ± 0.09 °C. Further, the “HeLa Cells Alamar Blue” value in the assay with HeLa cells (setting [4]) is listed as 40.5 ± 19.2 percentage of controls. Moreover, in the assay with A549 cells, the “A549 Cells Alamar Blue” value is 87.3 percentage of controls.

`Cn1c(CN)nc2ccccc21` [compound 281, (1‐methyl‐1H‐benzimidazol‐2‐yl)methylamine]: the ΔTm at 1000 µM on TbINO1 (setting [1]) came out at 0.7 ± 0.04 °C. Further, the values for the viability at 500 µM in the assay with HeLa cells (setting [2]) and with A549 cells were 47.6 ± 19.8% and 53.8%, respectively. Moreover, the CC50 in the assay with HeLa cells (Homo sapiens, HeLa, read-out: HeLa ED50) worked out at 659 ± 65 µM.

Take `Cn1nc2ccccc2c1CO` [compound 285, (2‐methyl‐2H‐indazol‐3‐yl)methanol]: the ΔTm at 1000 µM at TbINO1 (setting [1]) came out at 0.29 ± 0.07 °C. Besides, the viability at 500 µM in the assay with HeLa cells (setting [2]) is 73.4 ± 10.6%; in the assay with A549 cells, 67.6%.

As to `CCCc1ccc(C(C)=O)cc1` [compound 288, 1‐(4‐propylphenyl)ethan‐1‐one], the ΔTm at 1000 µM on TbINO1 (setting [1]) was 0.22 ± 0.08 °C. The viability at 500 µM with HeLa cells (setting [2]) was 72.2 ± 17.1%; in the assay with A549 cells, 90.6%.

Consider `O=C(O)C1Cc2ccccc2N1` (stereo not drawn) [compound 292, indoline-2-carboxylic acid], for which the ΔTm at 1000 µM at TbINO1 (read-out: TbIno1 Tm shift [°C]) was determined as 1.54 ± 0.11 °C. Besides, the viability at 500 µM with HeLa cells (setting [2]) is 37.6 ± 25%; in the assay on HeLa cells (setting [5]) it was 37.6 ± 2.5%; with A549 cells, 78.3%.

With `OCc1cc2ccccc2s1` [compound 301, 1‐benzothiophen‐2‐ylmethanol], the ΔTm at 1000 µM at TbINO1 (setting [1]) is 0.01 ± 0.05 °C. In addition, the viability at 500 µM with HeLa cells (setting [2]) worked out at 90.7 ± 4.5%; with A549 cells, 71%.

The values above are taken from PMC3199943, “Screening the MayBridge Rule of 3 Fragment Library for Compounds That Interact with the Trypanosoma brucei myo-Inositol-3-Phosphate Synthase and/or Show Trypanocidal Activity” (Molecular Biology International, 2011).
